Measurements from patent US20150118229A1, “JAK1 SELECTIVE INHIBITOR AND USES THEREOF” (ABBVIE INC., priority 2013, published 2015).

How the values were obtained:
[1] = tested on: adjuvant-induced arthritis (paw swelling, bone erosion); test: Adjuvant-induced arthritis (AIA) in Lewis rats; assay type: in vivo
Procedure: The inflammation appears in the contra-lateral (left) hind paw seven days after the initial immunization. […] Rats are lightly anesthetized with an inhalant anesthetic (isoflurane) and the contra-lateral (left) hind paw is dipped into the plethysmograph and the paw volume is recorded. The rats are scored every other day up to day 17 after immunization. […] Bone volume and density is determined for a 360 μm (200 slice) vertical section encompassing the tarsal section of the paw. […] Drug exposure is determined in the plasma using LC/MS.

[2] = tested on: peripheral NK cell counts; test: Peripheral NK cell counts in healthy rats; assay type: in vivo, rat; settings: rat
Text: The correlation of this effect with ex vivo cytokine signaling inhibition is shown in the right panel of FIG. 6. These measurements correlated well, confirming the Jak dependency of the NK cell count endpoint.
To establish the relationship between changes in NK cell counts and nonclinical efficacy, the changes in NK cell counts were compared with decreases in rat AIA disease activity per unit exposure.

For `C[C@@H]1CCN(C(=O)CC#N)C[C@@H]1N(C)c1ncnc2[nH]ccc12` [Tofacitinib, reference compound], the “efficacious exposure (AUC60), PK/PD modeling” value ([1]; AIA rats, about 60% inhibition of paw swelling) was roughly 300 ng·h/mL, the “AUC60 (60% inhibition of paw swelling), total AUC0-12” value ([1]; oral bid, last day of study) was 392 ± 121 ng·h/mL and the “AUC60, fraction unbound AUC0-12” value ([1]; oral bid, last day of study) was 300 ± 98 ng·h/mL. For the same compound, the “Paw Swelling (exposure)” value ([1]; rat AIA) was 514 ng·h/mL, the “inhibition of Paw Swelling reached at about the same level of reticulocyte inhibition” value ([1]; rat AIA vs reticulocyte deployment) was “about 60%” and the “NK Counts (exposure)” value [2] was 391 ng·h/mL. For the same compound, the “NK cell count decrease at about 60% efficacy (inhibition of paw swelling)” value [2] was “about 80%”.
